# Assay results taken from patent US20150246025A1, “2-PHENYL-5-HETEROCYCLYL-TETRAHYDRO-2H-PYRAN-3-AMINE COMPOUNDS FOR USE IN THE TREATMENT OF DIABETES AND ITS ASSOCIATED DISORDERS” (CADILA HEALTHCARE LIMITED, priority 2012, published 2015).
# Key:
# C57BL/6J mice = experiment: In vivo antihyperglycaemic/antidiabetic activity (OGTT), acute single dose 120-min time-course; details: Mus musculus, 2 h; male C57BL/6J mice, acute single dose 0,3 mg/kg po, 120-min time-course, n = 6, Mean ± SEM; read-out: In vivo OGTT C57; % Glucose change
# Outline: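 Male C57BL/6J mice, 8–12 weeks, fasted overnight, n=6 per group; compounds or saline vehicle given orally. Retro-orbital blood at 0, 30, 60 and 120 or up to 240 min; serum glucose by GOD/POD method. AUC and BCAUC compared by one-way ANOVA with Dunnett's test.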
# DPP-IV enzyme = target: T1, DPP-IV enzyme (Homo sapiens, UniProt P27487); experiment: In vitro DPP-IV inhibitory activity using enzymatic (fluorescence-based) assay; type: biochemical; details: soluble human DPP-IV, H-Gly-Pro-AMC 200 μM, pH 7.8, 25° C., 30 min; read-out: % In-vitro DPPIV Inhibition IC50
# T1 construct: soluble human proteins (DPP-IV enzyme) produced in a baculovirus expression system; made in house; host or cells: baculovirus expression system (Life Technologies)
# Outline: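 Recombinant soluble human DPP-IV (baculovirus-expressed) incubated with 200 μM H-Gly-Pro-AMC and test compounds at 30 and 100 nM. Ran at pH 7.8 HEPES, 25 °C, 30 min in dark; stopped with acetic acid. AMC fluorescence read at Ex 380/Em 460 nm.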
# [1] = Pharmacokinetic study in Wistar rats; type: in vivo; details: rat, plasma, po; male wistar rats, 2 mg/kg orally, n = 6, Mean ± SD
# Protocol: Pharmacokinetic Study in Wistar Rats
# The pharmacokinetic parameters of test compounds were determined in male wistar rats (n=6). Briefly, test compounds were administered orally/iv on a body weight basis to overnight fasted rats. Serial blood samples were collected in microcentrifuge tubes containing EDTA at pre-dose and post-dose after compounds administration, over a period of 168 hrs. Blood was collected at various time points and centrifuged at 4° C. The obtained plasma was frozen, stored at −70° C. and the concentrations of compounds in plasma were determined by the LC-MS/MS (Shimadzu LC 1 OAD, USA), using YMC hydrosphere C18 (2.0×50 mm, 3 μm) column (YMC Inc., USA). The pharmacokinetic parameters, such as Tmax, t1/2, AUC and % F were calculated using a non-compartmental model of WinNonlin software version 5.2.1.
# T1 sequence (P27487 39-766 limits assumed): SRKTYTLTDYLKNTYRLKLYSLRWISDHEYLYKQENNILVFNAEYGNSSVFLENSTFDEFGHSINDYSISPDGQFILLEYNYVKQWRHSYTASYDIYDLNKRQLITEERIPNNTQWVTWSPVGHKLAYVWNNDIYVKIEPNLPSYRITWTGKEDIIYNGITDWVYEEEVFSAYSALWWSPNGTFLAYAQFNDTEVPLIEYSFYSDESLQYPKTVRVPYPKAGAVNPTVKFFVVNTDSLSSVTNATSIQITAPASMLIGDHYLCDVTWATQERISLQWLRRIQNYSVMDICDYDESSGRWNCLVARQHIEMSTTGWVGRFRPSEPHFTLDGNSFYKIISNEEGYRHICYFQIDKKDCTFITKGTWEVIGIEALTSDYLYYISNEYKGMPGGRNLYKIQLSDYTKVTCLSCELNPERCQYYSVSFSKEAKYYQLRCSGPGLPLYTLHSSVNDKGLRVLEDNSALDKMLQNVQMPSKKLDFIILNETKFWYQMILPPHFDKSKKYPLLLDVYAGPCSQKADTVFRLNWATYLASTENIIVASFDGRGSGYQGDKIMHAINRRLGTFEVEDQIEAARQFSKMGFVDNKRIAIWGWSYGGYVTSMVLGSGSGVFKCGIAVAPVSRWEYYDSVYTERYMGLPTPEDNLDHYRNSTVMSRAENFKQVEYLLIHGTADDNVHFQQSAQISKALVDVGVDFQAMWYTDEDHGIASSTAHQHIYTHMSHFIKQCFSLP
SMILES,change in vivo at 0.3 mg/kg (C57BL/6J mice) [%],IC50 (DPP-IV enzyme) [nM],AUC [1] [ng·h/mL],Cmax [1] [ng/mL],half-life [1] [h]
"CS(=O)(=O)N1CC2CN([C@H]3CO[C@H](c4cc(F)ccc4F)[C@@H](N)C3)CC2C1 (stereo partly drawn) [Compound 1, (2R,3S,5R)-2-(2,5-difluorophenyl)-5-(5-(methylsulfonyl)-hexahydro-pyrrolo[3,4-c]pyrrol-2(1H)-yl)tetrahydro-2H-pyran-3-amine]",-22.5 ± 4.5,< 30,888 ± 129,148 ± 34.2,33.3 ± 2.07
"N[C@H]1C[C@@H](N2CC3COCC3C2)CO[C@@H]1c1cc(F)ccc1F (stereo partly drawn) [Compound 3, (2R,3S,5R)-2-(2,5-difluorophenyl)-5-(tetrahydro-1H-furo[3,4-c]pyrrol-5(3H)-yl)tetrahydro-2H-pyran-3-amine]",-27.6 ± 1.6,< 100,2970 ± 1070,301 ± 44.3,48.2 ± 11.1
"CS(=O)(=O)N1CC2=C(CN([C@H]3CO[C@H](c4cc(F)ccc4F)[C@@H](N)C3)C2)C1 [Compound 8, (2R,3S,5R)-2-(2,5-difluorophenyl)-5-(5-(methylsulfonyl)-5,6-dihydropyrrolo[3,4-c]pyrrol-2(1H,3H,4H)-yl)tetrahydro-2H-pyran-3-amine]",-49.1 ± 3.6,< 10,4750 ± 647,459 ± 52.2,59.5 ± 6.44
"N[C@H]1C[C@@H](N2CC3=C(C2)CS(=O)(=O)C3)CO[C@@H]1c1cc(F)ccc1F [Compound 17, 5-((3R,5S,6R)-5-amino-6-(2,5-difluorophenyl)tetrahydro-2H-pyran-3-yl)-3,4,5,6-tetrahydro-1H-thieno[3,4-c]pyrrole 2,2-dioxide]",-27.3 ± 3.3,,1550 ± 114,419 ± 45.5,32.5 ± 5.91
"CC(=O)N[C@H]1C[C@@H](N2CC3=C(C2)CN(S(C)(=O)=O)C3)CO[C@@H]1c1cc(F)ccc1F [Compound 46, N-((2R,3S,5R)-2-(2,5-difluorophenyl)-5-(5-(methylsulfonyl)-5,6-dihydropyrrolo[3,4-c]pyrrol-2(1H,3H,4H)-yl)tetrahydro-2H-pyran-3-yl)acetamide]",-9.3 ± 3.8,< 100,,,
"CC(=O)N[C@H]1C[C@@H](N2CC3=C(CN(C(C)=O)C3)C2)CO[C@@H]1c1cc(F)ccc1F [Compound 47, N-((2R,3S,5R)-5-(5-acetyl-5,6-dihydropyrrolo[3,4-c]pyrrol-2(1H,3H,4H)-yl)-2-(2,5-difluorophenyl)tetrahydro-2H-pyran-3-yl)acetamide]",8.6 ± 5.9,< 100,,,
"N[C@H]1C[C@@H](N2CC3=C(CN(C=O)C3)C2)CO[C@@H]1c1cc(F)ccc1F [Compound 48, 5-((3R,5S,6R)-5-amino-6-(2,5-difluorophenyl)tetrahydro-2H-pyran-3-yl)-3,4,5,6-tetrahydropyrrolo[3,4-c]pyrrole-2(1H)-carbaldehyde]",-38.5 ± 1.5,< 10,,,
"N[C@H]1C[C@@H](N2CC3=C(CN(C(=O)C(F)(F)F)C3)C2)CO[C@@H]1c1cc(F)ccc1F [Compound 50, 1-(5-((3R,5S,6R)-5-amino-6-(2,5-difluorophenyl)tetrahydro-2H-pyran-3-yl)-5,6-dihydropyrrolo[3,4-c]pyrrol-2(1H,3H,4H)-yl)-2,2,2-trifluoroethanone]",-30 ± 1.4,< 10,,,
